Experimental findings from US20240109900A1, “AZABICYCLIC SHP2 INHIBITORS” (IRBM S.P.A., priority 2021, published 2024) are described below.

Broadly, the pIC50 is −log10 of the IC50, conventionally taken in molar units.

pIC50: −log10 of the molar value. Read-outs that look alike come from different tables or passages of the source.

Assay [1] concerns the target SHP-2 enzyme (Met1-Leu525) (Homo sapiens (Human), UniProt Q06124). Briefly: SHP2 inhibition enzymatic assay. As to conditions: 75 μM DiFMUP substrate. It counts as biochemical. In short, it runs like this: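 Compounds were preincubated 30 min with 0.5 nM SHP-2 (Met1-Leu525) plus 500 nM IRS1 activating peptide (pH 7.2 HEPES, 5 mM DTT), then 75 μM DiFMUP substrate reacted 30 min at room temperature. After bpV quench, DiFMUP fluorescence gave % inhibition; four-parameter logistic fit yielded IC50.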

The test system of assay [2] is ERK phosphorylation in KYSE-520 cells. Briefly: Phospho-ERK cellular assay. In kind it is cell-based. The settings on record: read-out: PERK IC50. In a few lines: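 TR-FRET read-out of ERK1/2 Thr202/Tyr204 phosphorylation was taken after overnight antibody incubation at room temperature. Before that, KYSE-520 cells were treated 2 h at 37 °C with compound dilutions and lysed 30 min. Percent inhibition relative to vehicle and cell-free wells was fitted four-parametrically to give IC50.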

Setting [3] is: 0.5 nM SHP-2 activated by 500 nM IRS1 peptide, read-out: SHP2wt-IC50.
[4] abbreviates: Homo sapiens, KYSE-520, 2 h, KYSE-520 cells, 2 h at 37° C., phospho-ERK1/2 (Thr202/Tyr204) TR-FRET.
Setting [5] is: KYSE-520 cells, 2 h at 37° C., phospho-ERK1/2 (Thr202/Tyr204) TR-FRET.

SHP-2 enzyme (Met1-Leu525), sequence (Q06124 1-525): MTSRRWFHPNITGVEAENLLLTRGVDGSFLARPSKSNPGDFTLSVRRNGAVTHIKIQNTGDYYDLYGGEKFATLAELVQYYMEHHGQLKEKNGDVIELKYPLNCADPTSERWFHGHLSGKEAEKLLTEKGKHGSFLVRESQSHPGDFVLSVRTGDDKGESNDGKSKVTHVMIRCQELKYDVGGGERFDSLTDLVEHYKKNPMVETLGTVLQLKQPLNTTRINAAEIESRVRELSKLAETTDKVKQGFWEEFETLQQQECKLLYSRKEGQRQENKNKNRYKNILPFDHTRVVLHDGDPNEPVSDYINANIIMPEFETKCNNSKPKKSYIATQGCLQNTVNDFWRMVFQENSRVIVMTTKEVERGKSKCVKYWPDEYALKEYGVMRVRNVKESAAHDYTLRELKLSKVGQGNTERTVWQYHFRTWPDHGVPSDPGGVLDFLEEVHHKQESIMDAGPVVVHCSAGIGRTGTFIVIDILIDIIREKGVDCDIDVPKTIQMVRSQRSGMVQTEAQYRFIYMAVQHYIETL

In the case of `NC[C@]1(c2ccccc2F)[C@@H]2CCN(c3cnc(Sc4cccc5ncccc45)cn3)C[C@@H]21` [Example 422, ((1S,6R,7R)-7-(2-fluorophenyl)-3-(5-(quinolin-5-ylthio)pyrazin-2-yl)-3-azabicyclo[4.1.0]heptan-7-yl)methanamine], the pIC50 in assay [1] (setting [3]) was over 6.30; in assay [2] (setting [4]), over 6.00.
Taken in the same sequence, the figures for `Cc1nccc(Sc2cnc(N3CC[C@@H]4[C@H](C3)[C@@]4(CN)c3ccccc3F)cn2)c1F` [Example 423, ((1S,6R,7R)-3-(5-((3-fluoro-2-methylpyridin-4-yl)thio)pyrazin-2-yl)-7-(2-fluorophenyl)-3-azabicyclo[4.1.0]heptan-7-yl)methanamine] were over 6.30 and under 5.30.
Taken in the same sequence, the figures for `Cc1nccc(Sc2cnc(N3CC[C@@H]4[C@H](C3)[C@@]4(CN)c3cc(F)ccc3F)cn2)c1F` [Example 424, ((1S,6R,7R)-7-(2,5-difluorophenyl)-3-(5-((3-fluoro-2-methylpyridin-4-yl)thio)pyrazin-2-yl)-3-azabicyclo[4.1.0]heptan-7-yl)methanamine] were over 6.30 and over 6.00.
Turning to `Cc1c(-c2ccc3nc(N4CC[C@@H]5[C@H](C4)[C@@]5(CN)c4ccccc4F)cnc3n2)ccc2nn(C)cc12` [Example 425, ((1S,6R,7R)-3-(6-(2,4-dimethyl-2H-indazol-5-yl)pyrido[2,3-b]pyrazin-2-yl)-7-(2-fluorophenyl)-3-azabicyclo[4.1.0]heptan-7-yl)methanamine], the figures for the pIC50 in assay [1] (setting [3]) and in assay [2] (setting [4]) were over 6.30 and over 6.00, respectively.
Taken in the same sequence, the figures for `Cc1nccc(Sc2ccc3nc(N4CC[C@@H]5[C@H](C4)[C@@]5(CN)c4cc(F)ccc4F)cnc3n2)c1F` [Example 426, ((1S,6R,7R)-7-(2,5-difluorophenyl)-3-(6-((3-fluoro-2-methylpyridin-4-yl)thio)pyrido[2,3-b]pyrazin-2-yl)-3-azabicyclo[4.1.0]heptan-7-yl)methanamine] were over 6.30 and over 6.00.
Taken in the same sequence, the figures for `Cn1cc2c(Cl)c(Sc3cnc(N4CC[C@@H]5[C@H](C4)[C@@]5(CN)c4ccccc4F)cn3)ccc2n1` [Example 427, ((1S,6R,7R)-3-(5-((4-chloro-2-methyl-2H-indazol-5-yl)thio)pyrazin-2-yl)-7-(2-fluorophenyl)-3-azabicyclo[4.1.0]heptan-7-yl)methanamine] were over 6.30 and over 6.00.
`CN(C)C(=O)Cn1cc2c(Cl)c(-c3n[nH]c4nc(N5CC[C@@H]6[C@H](C5)[C@@]6(CN)c5ccccc5F)cnc34)ccc2n1` [Example 428]: the pIC50 in assay [1] (setting [3]) was over 6.30; in assay [2] (setting [5]) it was over 6.00.
As for `NC[C@]1(c2cccc(F)c2F)[C@@H]2CCN(c3cnc(Sc4ccnc(N)c4Cl)c(N)n3)C[C@@H]21` [Example 429, 3-((2-amino-3-chloropyridin-4-yl)thio)-6-((1S,6R,7R)-7-(aminomethyl)-7-(2,3-difluorophenyl)-3-azabicyclo[4.1.0]heptan-3-yl)pyrazin-2-amine], the values for the pIC50 in assay [1] (setting [3]) and in assay [2] (setting [4]) were over 6.30 and over 6.00, respectively.
The like results for `NC[C@]1(c2cc(F)ccc2F)[C@@H]2CCN(c3cnc(Sc4ccnc(C5CC5)c4Cl)c(N)n3)C[C@@H]21` [Example 430, 6-((1S,6R,7R)-7-(aminomethyl)-7-(2,5-difluorophenyl)-3-azabicyclo[4.1.0]heptan-3-yl)-3-((3-chloro-2-cyclopropylpyridin-4-yl)thio)pyrazin-2-amine] were, in that order, over 6.30 and over 6.00.
The like results for `Cc1nccc(Sc2ncc(N3CC[C@@H]4[C@H](C3)[C@@]4(CN)c3cc(F)ccc3F)nc2N)c1F` [Example 431, 6-((1S,6R,7R)-7-(aminomethyl)-7-(2,5-difluorophenyl)-3-azabicyclo[4.1.0]heptan-3-yl)-3-((3-fluoro-2-methylpyridin-4-yl)thio)pyrazin-2-amine] were, in that order, over 6.30 and over 6.00.
As for `CN(C)C(=O)Cn1ncc2c(Cl)c(-c3n[nH]c4nc(N5CC[C@@H]6[C@H](C5)[C@@]6(CN)c5ccccc5F)cnc34)ccc21` [Example 432], the pIC50 is over 6.30 in assay [1] (setting [3]) and over 6.00 in assay [2] (setting [5]).
Turning to `Cc1csc([C@@]2(CN)[C@@H]3CN(c4cc(=O)n(-c5cccc(Cl)c5Cl)c(C)n4)C[C@@H]32)n1` [Example 433, 6-((1R,5S,6r)-6-(aminomethyl)-6-(4-methylthiazol-2-yl)-3-azabicyclo[3.1.0]hexan-3-yl)-3-(2,3-dichlorophenyl)-2-methylpyrimidin-4(3H)-one], the pIC50 in assay [1] (setting [3]) was over 6.30; in assay [2] (setting [4]) it was over 6.00.
Take `Cc1csc([C@@]2(CN)[C@@H]3CN(c4cnc(Sc5ccnc(N)c5Cl)c(N)n4)C[C@@H]32)n1` [Example 434, 3-((2-amino-3-chloropyridin-4-yl)thio)-6-((1R,5S,6r)-6-(aminomethyl)-6-(4-methylthiazol-2-yl)-3-azabicyclo[3.1.0]hexan-3-yl)pyrazin-2-amine]: the values for the pIC50 in assay [1] (setting [3]) and in assay [2] (setting [5]) were over 6.30 and over 6.00, respectively.
Turning to `COc1cc(-c2ccc3nc(N4CC[C@@H]5[C@H](C4)[C@@]5(CN)c4ccccc4F)cnc3n2)cc2cccnc12` [Example 435, ((1S,6R,7R)-7-(2-fluorophenyl)-3-(6-(8-methoxyquinolin-6-yl)pyrido[2,3-b]pyrazin-2-yl)-3-azabicyclo[4.1.0]heptan-7-yl)methanamine], the figures for the pIC50 in assay [1] (setting [3]) and in assay [2] (setting [4]) were over 6.30 and over 6.00, respectively.
As to `Cn1cnc2ccc(-c3ccc4nc(N5CC[C@@H]6[C@H](C5)[C@@]6(CN)c5ccccc5F)cnc4n3)cc21` [Example 436, ((1S,6R,7R)-7-(2-fluorophenyl)-3-(6-(1-methyl-1H-benzo[d]imidazol-6-yl)pyrido[2,3-b]pyrazin-2-yl)-3-azabicyclo[4.1.0]heptan-7-yl)methanamine], the values for the pIC50 in assay [1] (setting [3]) and in assay [2] (setting [4]) were over 6.30 and over 6.00, respectively.
Taken in the same sequence, the figures for `Cc1csc([C@@]2(CN)[C@@H]3CN(c4cnc5c(-c6cccc(Cl)c6Cl)n[nH]c5n4)CC[C@@H]32)n1` [Example 437, ((1R,6S,7R)-3-(3-(2,3-dichlorophenyl)-1H-pyrazolo[3,4-b]pyrazin-6-yl)-7-(4-methylthiazol-2-yl)-3-azabicyclo[4.1.0]heptan-7-yl)methanamine] were over 6.30 and 5.30 to 6.00.
Taken in the same sequence, the figures for `NC[C@]1(c2ccccc2F)[C@@H]2CCN(c3cnc4c(-c5ccn6nccc6c5Cl)n[nH]c4n3)C[C@@H]21` [Example 438, ((1S,6R,7R)-3-(3-(4-chloropyrazolo[1,5-a]pyridin-5-yl)-1H-pyrazolo[3,4-b]pyrazin-6-yl)-7-(2-fluorophenyl)-3-azabicyclo[4.1.0]heptan-7-yl)methanamine] were over 6.30 and over 6.00.
The like results for `Cc1csc([C@@]2(CN)[C@@H]3CCN(c4cnc5c(-c6ccn7nccc7c6Cl)n[nH]c5n4)C[C@@H]32)n1` [Example 439, ((1S,6R,7S)-3-(3-(4-chloropyrazolo[1,5-a]pyridin-5-yl)-1H-pyrazolo[3,4-b]pyrazin-6-yl)-7-(4-methylthiazol-2-yl)-3-azabicyclo[4.1.0]heptan-7-yl)methanamine] were, in that order, over 6.30 and over 6.00.
Turning to `Cc1csc([C@@]2(CN)[C@@H]3CCN(c4cnc5c(-c6ccn7nc(C)cc7c6Cl)n[nH]c5n4)C[C@@H]32)n1` [Example 440, ((1S,6R,7S)-3-(3-(4-chloro-2-methylpyrazolo[1,5-a]pyridin-5-yl)-1H-pyrazolo[3,4-b]pyrazin-6-yl)-7-(4-methylthiazol-2-yl)-3-azabicyclo[4.1.0]heptan-7-yl)methanamine], the pIC50 in assay [1] (setting [3]) was over 6.30; in assay [2] (setting [4]) it was over 6.00.
Taken in the same sequence, the figures for `Cc1csc(C2(CN)C3CCN(c4cnc5c(-c6ccc(Cl)c7ncccc67)n[nH]c5n4)CC32)n1` (centres unmarked) [Example 442, (3-(3-(8-chloroquinolin-5-yl)-1H-pyrazolo[3,4-b]pyrazin-6-yl)-7-(4-methylthiazol-2-yl)-3-azabicyclo[4.1.0]heptan-7-yl)methanamine] were over 6.30 and over 6.00.
Consider `Cc1csc(C2(CN)C3CCN(c4cnc5c(-c6ccc(S(=O)(=O)F)c7ccccc67)n[nH]c5n4)CC32)n1` (centres unmarked) [Example 443, 4-(6-(7-(aminomethyl)-7-(4-methylthiazol-2-yl)-3-azabicyclo[4.1.0]heptan-3-yl)-1H-pyrazolo[3,4-b]pyrazin-3-yl)naphthalene-1-sulfonyl fluoride], for which the pIC50 in assay [1] (SHP2wt-IC50, 0.5 nM SHP-2 activated by 500 nM IRS1 peptide) is 5.52 to 6.30; in assay [2] (Homo sapiens, KYSE-520, 2 h) it was over 6.00.
`Cc1csc([C@@]2(CN)[C@@H]3CCN(c4cnc5c(-c6ccc7nc(C)sc7c6Cl)n[nH]c5n4)C[C@@H]32)n1` [Example 444, ((1S,6R,7S)-3-(3-(7-chloro-2-methylbenzo[d]thiazol-6-yl)-1H-pyrazolo[3,4-b]pyrazin-6-yl)-7-(4-methylthiazol-2-yl)-3-azabicyclo[4.1.0]heptan-7-yl)methanamine]: the pIC50 in assay [1] (setting [3]) is over 6.30; in assay [2] (setting [4]), over 6.00.
